{"source": "patent US20120263739A1", "about": "“ANTI INTEGRIN ANTIBODIES LINKED TO NANOPARTICLES LOADED WITH CHEMOTHERAPEUTIC AGENTS” (MERCK PATENT GMBH, priority 2009, published 2012)", "key": {"[1]": {"test": "Doxorubicin loading (HPLC of non-entrapped drug)", "type": "physicochemical", "details": "mean ± SD, n = 3", "experimental": "(5) Preparation of doxorubicin-loaded nanoparticles 160 mg HSA were dissolved in 4 ml purified water and the solution was filtered through a 0.22 μm cellulose acetate membrane filter (Schleicher & Schuell, Dassel, Germany). An aliquot (500 μl) of this solution was added to 200 μl of a 0.5% (w/v) aqueous stock solution of doxorubicin. To this mixture, 300 μl of purified water were added. In order to adsorb doxorubicin to human serum albumin in solution, the mixture was incubated under stirring (550 rpm) for 2 h at room temperature. For the preparation of nanoparticles by desolvation, 3 ml ethanol (96%, v/v) were added continuously (1 ml/min) with a tubing pump (Ismatec IPN, Glattbrugg, Switzerland). After protein desolvation, an aliquot of 11.75 μl 8% glutaraldehyde solution was added to induce particle crosslinking (corresponding to 100% stoichiometric protein crosslinking). […] The nanoparticle content was determined by gravimetry. […] The content of entrapped doxorubicin was calculated from the difference between total doxorubicin and unbound drug. For the quantification of doxorubicin, a Merck Hitachi D7000 HPLC system equipped with a LiChroCART® 250-4 LiChrospher®-100 RP-18 column (Merck, Darmstadt, Germany) was used. […] Doxorubicin was quantified by UV (250 nm) and fluorescence detection (excitation 560 nm, emission 650 nm)."}, "[2]": {"test": "Zetapotential by Laser Doppler microelectrophoresis", "type": "physicochemical", "details": "mean ± SD; n = 3; 100% crosslinking", "experimental": "(§1) Nanoparticles were analyzed with regard to particle diameter and polydispersity by photon correlation spectroscopy (PCS) using a Malvern Zetasizer 3000HSA (Malvern Instruments Ltd., Malvern, UK). The zetapotential was measured with the same instrument by Laser Doppler microelectrophoresis. Prior to both measurements the samples were diluted with filtered (0.22 μm) purified water. Particle content was determined by microgravimetry. For this purpose 50.0 μl of the nanoparticle suspension was pipetted into an aluminium weighing dish and dried for 2 h at 80° C. After 30 min of storage in an exsiccator the samples were weighed on a micro balance (Sartorius, Germany)."}, "[3]": {"test": "Particle content by microgravimetry", "type": "physicochemical", "details": "mean ± SD; n = 3; 100% crosslinking", "experimental": "as §1"}, "[4]": {"tested_on": "αv-negative M21L cells", "test": "MTT cell viability assay", "details": "for IC-50 M21L: MTT, reduce cell viability by 50%, M21L cells", "quoted_text": "(§5) Cell viability was assessed using the 3-(4,5-dimethylthiazol-2-yl)-2,5-diphenyltetrazolium bromide (MTT) dye reduction assay [27] modified as described before [28]."}, "[5]": {"tested_on": "αvβ3 integrin positive melanoma cells M21", "test": "Cell detachment from vitronectin coated surface", "type": "cell-based", "details": "4 ng/μl, 4 h at 37° C.", "experimental": "FIG. 9: Cell detachment from vitronectin coated surface. For cell detachment assay, 96-well ELISA plates were coated with vitronectin and cells were allowed to attach and spread for 1 h. Then, 4 ng/μl of free DI17E6 or the different unloaded or doxorubicin nanoparticulate formulations were added and the plates were incubated for additional 4 h at 37° C. to induce detachment (concentrations are calculated referred to DI17E6 or equivalent NP amounts). Detached cells were removed and remaining attached cells were stained with CyQUANT GR and counted against untreated control as described in the manufacturer's instructions manual. (Internal control of each experiment n=10, one representative experiment out of 9 independent experiments is shown.)\nFor cell detachment assays, 96-well ELISA plates were coated with vitronectin as described above. After blocking, cells were allowed to attach and spread for 1 h in cell adhesion medium. Then, 4 ng/μl or 10 ng/μl of either free DI17E6 or the different nanoparticulate formulations (referred to free mAb) were added and the plates were incubated for additional 4 h at 37° C. to induce detachment. Subsequently, plates were washed and processed as for cell adhesion assay. Specific inhibition of attachment or induction of detachment were determined relative to vitronectin-coated surfaces blocked with BSA."}, "[6]": {"tested_on": "M21 cells", "test": "Cellular uptake and intracellular distribution, confocal laser scanning microscopy", "type": "cell-based", "details": "10 ng/μl, 4 h at 37° C., CLSM", "experimental": "Cellular uptake and intracellular distribution: The cellular uptake and intracellular distribution of these nanoparticulate formulations are shown by confocal laser scanning microscopy (CLSM). αvβ3 integrin-positive M21 melanoma cells are incubated with NP-Dox-DI17E6, with NP-Dox-IgG, or free Doxorubicin (FIG. 5). […] The overlay of the different fluorescence channels (FIG. 6B-D) verifies the intracellular uptake of NP-Dox-DI17E6 (FIG. 6A).\nFIG. 5: Cellular uptake and intracellular distribution of nanoparticles studied by confocal laser scanning microscopy (CLSM). M21 cells were cultured on glass slides and treated with 10 ng/μl of the different nanoparticle formulations (referred to DI17E6 concentration or equivalent amount of control nanoparticles) for 4 h at 37° C. The green autofluorescence of the nanoparticles was used for detection and the red autofluorescence of doxorubicin. The cell membranes were stained with Concanavalin A AlexaFluor 350 (blue). Pictures were taken within inner sections of the cells. […]\nCellular uptake and intracellular distribution of the nanoparticles were studied by confocal laser scanning microscopy. […] (concentrations are calculated referred to DI17E6 or equivalent NP amounts as described in 2.5). […] Nanoparticles were detected at 488/520 nm. Doxorubicin was detected by red fluorescence at 488/590 nm."}, "[7]": {"test": "Antibody bound to nanoparticle surface (SEC of supernatant)", "type": "physicochemical", "experimental": "For the thiolation step of the antibodies, DI17E6 or IgG were dissolved in phosphate buffer pH 8.0 at a concentration of 1.0 mg/ml. For the introduction of thiol groups DI17E6 or IgG, respectively, were incubated with a 50 fold molar excess of 2-iminothiolane solution (c=1.14 mg/ml; 40.2 μl) for 2 h as previously described by Steinhauser et al. (2006). The antibodies were purified by size exclusion chromatography (SEC, D-Salt™ Dextran Desalting column). The resulting solutions contained thiolated antibody (DI17E6 or IgG, respectively) at a concentration of about 500 μg/ml. For the coupling reaction 1.0 ml of the sulfhydryl-reactive nanoparticle suspension was incubated with 1.0 ml of the thiolated DI17E6 or IgG, respectively, to achieve a covalent linkage between antibody and the nanoparticle system. For the preparation of samples with adsorptively attached antibody, 1.0 ml of the mPEG5000-SPA modified nanoparticles were incubated with 1.0 ml of thiolated DI17E6 or IgG, respectively. […] To determine unbound antibody the resulting supernatants were collected and analyzed by size exclusion chromatography (SEC) as described above. The amount of antibody bound to the nanoparticle surface was calculated as difference between the amount of antibody obtained after thiolation and purification and the amount of antibody determined in the supernatant obtained after the conjugation step."}, "[8]": {"tested_on": "αvβ3-positive M21 melanoma cells", "test": "MTT cell viability assay", "details": "for IC-50 M21: MTT, reduce cell viability by 50%, M21 cells", "quoted_text": "as §5"}, "[9]": {"test": "Particle diameter and polydispersity by photon correlation spectroscopy", "type": "physicochemical", "details": "mean ± SD; n = 3; 100% crosslinking", "experimental": "as §1"}, "[10]": {"tested_on": "αvβ3 integrin positive melanoma cells M21", "test": "Cellular binding of nanoparticulate formulations, flow cytometry (FACS)", "type": "cell-based", "details": "2 ng/μl, 4 h at 37° C.", "experimental": "(§2) Cellular binding: αvβ3 integrin-positive melanoma cells M21 and αv-negative melanoma cells M21L are incubated with DI17E6-coupled nanoparticles (NP-DI17E6) or nanoparticles coupled to an unspecific control mAb IgG (NP-IgG). […] Both nanoparticle preparations show low binding to M21L cells (FIG. 4D).\n(§3) FIG. 4: Cellular binding of unloaded and doxorubicin loaded nanoparticulate formulations. αvβ3 integrin positive melanoma cells M21 (A and C) and αv-defective melanoma cells M21L (B and D) were treated with 2 ng/μl of the different unloaded (A and B) or doxorubicin loaded (C and D) nanoparticulate formulations for 4 h at 37° C. (concentrations are calculated referred to DI17E6 or equivalent NP amounts). Flow cytometry (FACS) analysis was performed to quantify their cellular binding. The data is shown as histogram of the FL1-H-channel (autofluorescence of the nanoparticles). Green: NP-DI17E6 and NP-Dox-DI17E6 respectively, red: NP-IgG and NP-Dox-IgG respectively, blue: untreated control. […]\n(§4) M21 or M21L cells were cultured in 24-well plates (Greiner, Frickenhausen, Germany) and treated with the different nanoparticle formulations for 4 h at 37° C. […] Control nanoparticles without DI17E6 modification were used in equivalent nanoparticle quantities. […] Nanoparticles could be detected at 488/520 nm."}, "[11]": {"tested_on": "αv-defective melanoma cells M21L", "test": "Cellular binding of nanoparticulate formulations, flow cytometry (FACS)", "type": "cell-based", "details": "2 ng/μl, 4 h at 37° C.", "experimental": "as §2, §3, §4"}, "[12]": {"tested_on": "αvβ3 integrin positive melanoma cells M21", "test": "Cell attachment on vitronectin coated surface", "type": "cell-based", "details": "2 ng/μl, 1 h", "experimental": "FIG. 8: Cell attachment on vitronectin coated surface. 2 ng/μl of free DI17E6 or the different nanoparticulate formulations were incubated together with the αvβ3 integrin positive melanoma cells M21 on vitronectin coated ELISA plates (concentrations are calculated referred to DI17E6 or equivalent NP amounts). After 1 h of incubation non-adherent cells were removed. Remaining attached cells were stained with CyQUANT GR and counted against untreated control as described in the manufacturer's instructions manual. (Internal control of each experiment n=10, one representative experiment out of 3 independent experiments is shown.)\nαvβ3 integrin positive melanoma cells M21 were grown on vitronectin (MoBiTec, Göttingen, Germany) coated ELISA plates (Nunc, Wiesbaden, Germany). Therefore, ELISA 96-well plates were coated with 1 μg/ml vitronectin for 1 h at 37° C. Plates were blocked with 1% heat inactivated BSA (PAA, Cölbe, Germany) and incubated with either 2 ng/μl of free DI17E6 or the different nanoparticulate formulations (referred to free mAb) together with the cells in cell adhesion medium (RPMI 1640 with 2 mM L-glutamine supplemented with 1% BSA). […] Remaining attached cells were stained with CyQUANT GR (Invitrogen, Karlsruhe) and counted against untreated control in a microtiter ELISA reader as described in the manufacturer instructions manual."}, "[13]": {"target": "alpha-v beta-3 integrin on M21 melanoma cells (UniProt P06756)", "sequence (P06756 31-1048, chain 1 of 2)": "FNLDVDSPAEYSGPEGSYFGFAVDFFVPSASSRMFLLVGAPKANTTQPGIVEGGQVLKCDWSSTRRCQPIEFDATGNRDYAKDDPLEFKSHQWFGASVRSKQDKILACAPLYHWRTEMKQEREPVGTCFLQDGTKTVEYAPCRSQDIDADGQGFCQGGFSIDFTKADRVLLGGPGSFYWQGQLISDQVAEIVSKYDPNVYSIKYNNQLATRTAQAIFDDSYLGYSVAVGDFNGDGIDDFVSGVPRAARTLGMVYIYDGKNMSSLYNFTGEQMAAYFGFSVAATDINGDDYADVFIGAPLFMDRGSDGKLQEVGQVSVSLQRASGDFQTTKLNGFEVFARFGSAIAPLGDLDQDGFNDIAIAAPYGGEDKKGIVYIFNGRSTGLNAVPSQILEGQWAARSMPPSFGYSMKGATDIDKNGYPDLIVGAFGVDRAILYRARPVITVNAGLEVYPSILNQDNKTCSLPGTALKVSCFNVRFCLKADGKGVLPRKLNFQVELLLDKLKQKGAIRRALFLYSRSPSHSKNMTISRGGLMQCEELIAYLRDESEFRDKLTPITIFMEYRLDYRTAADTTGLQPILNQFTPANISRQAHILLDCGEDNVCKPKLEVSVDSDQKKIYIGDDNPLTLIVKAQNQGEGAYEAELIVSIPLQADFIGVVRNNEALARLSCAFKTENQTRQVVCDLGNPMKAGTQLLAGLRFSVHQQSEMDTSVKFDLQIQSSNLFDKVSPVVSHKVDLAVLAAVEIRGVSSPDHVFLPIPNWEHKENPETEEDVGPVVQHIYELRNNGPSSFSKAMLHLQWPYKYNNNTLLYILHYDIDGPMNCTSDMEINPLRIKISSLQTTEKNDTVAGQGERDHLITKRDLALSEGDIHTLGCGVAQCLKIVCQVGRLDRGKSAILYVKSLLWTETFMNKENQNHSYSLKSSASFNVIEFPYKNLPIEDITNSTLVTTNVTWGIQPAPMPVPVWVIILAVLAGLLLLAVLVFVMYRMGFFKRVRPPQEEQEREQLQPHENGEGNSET", "sequence (P05106 27-788, chain 2 of 2, further chain)": "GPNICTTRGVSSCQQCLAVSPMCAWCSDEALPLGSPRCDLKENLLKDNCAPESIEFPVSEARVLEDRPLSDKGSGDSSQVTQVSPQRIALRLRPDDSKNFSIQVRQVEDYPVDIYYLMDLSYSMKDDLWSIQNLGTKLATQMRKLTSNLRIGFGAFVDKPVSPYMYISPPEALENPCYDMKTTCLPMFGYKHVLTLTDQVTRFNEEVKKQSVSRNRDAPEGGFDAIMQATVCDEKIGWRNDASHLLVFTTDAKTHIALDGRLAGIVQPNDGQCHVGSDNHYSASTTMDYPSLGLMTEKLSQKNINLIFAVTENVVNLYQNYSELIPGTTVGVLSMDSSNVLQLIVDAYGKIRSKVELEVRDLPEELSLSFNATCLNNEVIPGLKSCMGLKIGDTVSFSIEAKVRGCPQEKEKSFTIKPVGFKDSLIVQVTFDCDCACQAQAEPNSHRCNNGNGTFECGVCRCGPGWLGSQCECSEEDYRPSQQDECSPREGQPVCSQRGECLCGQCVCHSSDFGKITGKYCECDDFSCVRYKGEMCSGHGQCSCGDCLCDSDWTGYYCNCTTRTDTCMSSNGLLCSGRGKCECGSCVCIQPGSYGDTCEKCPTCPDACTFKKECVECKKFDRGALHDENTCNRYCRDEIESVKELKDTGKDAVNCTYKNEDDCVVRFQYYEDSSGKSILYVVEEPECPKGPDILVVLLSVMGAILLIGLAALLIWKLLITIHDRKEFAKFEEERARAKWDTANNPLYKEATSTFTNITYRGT", "test": "cell-based or functional assay"}, "[14]": {"tested_on": "αvβ3 positive melanoma cells M21 on vitronectin", "test": "Kinetic of cell detachment, transmitted light time lapse microscopy", "type": "cell-based", "details": "total incubation time 1-2 d", "quoted_text": "A parallel detachment kinetic study of the different nanoparticulate formulations or free doxorubicin confirms the cell detachment assay. In this study detachment is observed by transmitted light time lapse microscopy over a period of 1-2 d. Pictures were done every 7 minutes. The detachment time of the cells is measured.\nFor the determination of cell detachment kinetics, cells were seeded in a vitronectin coated multiwell chamber and incubated with the different nanoparticulate formulations or free doxorubicin in a humidified, CO2-aerated climate chamber at 37° C. Detachment was observed by transmitted light time lapse microscopy over a period of 1-2 d. Pictures were done every 7 minutes. The detachment of the cells was analyzed by manual evaluation of the data."}}}
{"compound": "NP-Dox-DI17E6", "values": [{"measurement": "Drug loading", "setting": "[1]", "value": "56.7 ± 2.9", "unit": "µg/mg"}, {"measurement": "Zetapotential", "setting": "[2]", "value": "−40.3 ± 3.1", "unit": "mV"}, {"measurement": "Particle content", "setting": "[3]", "value": "14.4 ± 1.2", "unit": "mg/mL"}, {"measurement": "IC-50 M21L", "setting": "[4]", "value": ">100", "unit": "ng/mL"}, {"measurement": "Cell detachment from vitronectin coated surfaces", "setting": "[5]", "value": "same detachment efficiency"}, {"measurement": "Cellular uptake and intracellular distribution", "setting": "[6]", "value": "reaches the inner part of the cells"}, {"measurement": "Covalent linkage of antibody to the particle surface", "setting": "[7]; covalent linkage", "value": "11-20 μg antibody/mg nanoparticle"}, {"measurement": "Antibody binding efficiency", "setting": "[7]; mean ± SD, n = 3, antibody per mg nanoparticle", "value": "15.84 ± 4.07", "unit": "µg/mg"}, {"measurement": "IC-50 M21", "setting": "[8]", "value": "8.0 ± 0.2", "unit": "ng/mL"}, {"measurement": "Particle diameter", "setting": "[9]", "value": "404.9 ± 27.0", "unit": "nm"}, {"measurement": "Polydispersity", "setting": "[9]", "value": "0.040 ± 0.045"}, {"measurement": "Cellular binding to M21 cells", "setting": "[10]", "value": "high binding"}, {"measurement": "Cellular binding to M21L cells", "setting": "[11]", "value": "low binding"}]}
{"compound": "free DI17E6: deimmunized version of monoclonal mouse antibody 17E6, directed against αv integrins (SEQ ID No. 1 and 2)", "values": [{"measurement": "IC-50 M21L", "setting": "[4]", "value": ">100", "unit": "ng/mL"}, {"measurement": "Cell detachment from vitronectin coated surfaces", "setting": "[5]", "value": "cell detachment of αvβ3 positive melanoma cells M21 from vitronectin coated surfaces is also possible"}, {"measurement": "IC-50 M21", "setting": "[8]", "value": ">100", "unit": "ng/mL"}, {"measurement": "Inhibition of cell attachment to vitronectin coated surfaces", "setting": "[12]", "value": "inhibits the attachment of the M21 cells to vitronectin coated surfaces"}]}
{"compound": "NP-Dox-DI17E6 (doxorubicin-loaded HSA nanoparticles with DI17E6 covalently coupled on the surface)", "values": [{"measurement": "IC-50 of MTT cell viability assay on M21 cells (referred to doxorubicin)", "setting": "[13]", "value": 8, "unit": "ng/mL"}]}
{"compound": "COc1cccc2c1C(=O)c1c(O)c3c(c(O)c1C2=O)C[C@@](O)(C(=O)CO)C[C@@H]3O[C@H]1C[C@H](N)[C@H](O)[C@H](C)O1", "note": "[free doxorubicin, doxorubicin, reference compound]", "values": [{"measurement": "IC50", "setting": "[4]; read-out: IC-50 M21L", "value": "0.0707 ± 0.0008", "unit": "µg/mL"}, {"measurement": "Cellular uptake and intracellular distribution", "setting": "[6]", "value": "Red doxorubicin fluorescence can be detected"}, {"measurement": "IC50", "setting": "[8]; Homo sapiens, M21, read-out: IC-50 M21", "value": "0.0575 ± 0.0037", "unit": "µg/mL"}, {"measurement": "Cell death [h after incubation]", "setting": "[14]", "value": 17, "unit": "h"}]}
